We go through 25 compounds from patent US7514452B2, “2-furancarboxylic acid hydrazides and pharmaceutical compositions containing the same” (Dainippon Pharmaceutical Co., Ltd, priority 2002, dated 2009).

Molecules are shown by their SMILES.

One may read the melting point as the temperature of the solid-liquid transition. The term IC50 denotes the concentration needed to halve the response being measured.

The target of data set [1] is glucagon receptor (Mus musculus, UniProt Q61606). Put plainly: Experiment for glucagon binding inhibition, mouse hepatic membrane (125I-glucagon). Conditions: male ddY mouse hepatic membrane, 125I-glucagon 50 pM, 25° C. for 30 minutes; read-out: Glucagon binding inhibitory activity IC50 (nM) Mouse. On the procedure:
(§1) The preparation of membrane from mouse and rat livers was carried out according to the method described in Bioorg. Med. Chem. Lett. 1992, 12, 915-918 in this experiment and ^125I-glucagon binding activity was measured with these membranes as glucagon receptor's samples. Livers were removed from male SD rats (about 250 g body weight per rat) and male ddY mice (about 30 g body weight per mouse). […] The homogenate was centrifuged for 15 minutes at 30,000×g. […] The precipitaion thus obtained was used as a hepatic membrane sample. […] The mixture was incubated at 25° C. for 30 minutes. […] The filter was washed 3 times with 50 mM Tris-HCl buffer (pH 7.2), and the radioactivity of the filter was measured by a γ counter (ARC-360, Aloka Co., Ltd.). […] Each experiment was carried out in duplicate. […] The concentration at 50% inhibition of binding (IC50) was calculated using a pseudo Hill plot.

Data set [2] concerns the target glucagon receptor (Rattus norvegicus, UniProt P30082). Put plainly: Experiment for glucagon binding inhibition, rat hepatic membrane (125I-glucagon). Conditions: male SD rat hepatic membrane, 125I-glucagon 50 pM, 25° C. for 30 minutes; read-out: Glucagon binding inhibitory activity IC50 (nM) Rat. As for the experimental part:
as §1

Chain of glucagon receptor (Rattus norvegicus, UniProt P30082) (P30082 27-485): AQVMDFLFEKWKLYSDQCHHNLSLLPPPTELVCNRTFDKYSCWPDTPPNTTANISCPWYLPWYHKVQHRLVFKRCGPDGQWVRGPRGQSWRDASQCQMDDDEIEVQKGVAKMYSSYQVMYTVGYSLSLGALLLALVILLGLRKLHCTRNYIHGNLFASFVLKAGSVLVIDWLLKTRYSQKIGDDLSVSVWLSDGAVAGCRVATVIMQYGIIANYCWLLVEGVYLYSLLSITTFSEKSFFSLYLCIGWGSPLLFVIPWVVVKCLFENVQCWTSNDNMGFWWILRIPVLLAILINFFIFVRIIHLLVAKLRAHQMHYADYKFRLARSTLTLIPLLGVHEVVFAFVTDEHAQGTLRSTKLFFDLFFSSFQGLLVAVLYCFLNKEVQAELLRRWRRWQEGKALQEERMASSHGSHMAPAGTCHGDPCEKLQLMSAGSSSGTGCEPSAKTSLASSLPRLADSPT
Chain of glucagon receptor (Mus musculus, UniProt Q61606) (Q61606 27-485): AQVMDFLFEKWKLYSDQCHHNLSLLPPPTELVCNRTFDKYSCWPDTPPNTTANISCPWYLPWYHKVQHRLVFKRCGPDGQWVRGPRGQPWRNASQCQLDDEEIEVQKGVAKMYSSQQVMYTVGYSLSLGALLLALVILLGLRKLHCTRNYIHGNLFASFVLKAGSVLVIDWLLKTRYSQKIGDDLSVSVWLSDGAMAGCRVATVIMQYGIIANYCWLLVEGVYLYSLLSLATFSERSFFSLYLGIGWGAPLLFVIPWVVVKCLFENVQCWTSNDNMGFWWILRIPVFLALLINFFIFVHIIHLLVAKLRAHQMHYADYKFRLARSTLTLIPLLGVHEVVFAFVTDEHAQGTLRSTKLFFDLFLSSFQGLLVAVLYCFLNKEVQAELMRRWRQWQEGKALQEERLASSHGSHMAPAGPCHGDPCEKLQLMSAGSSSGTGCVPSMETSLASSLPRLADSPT

Consider `CCCCc1ccc(-c2ccoc2C(=O)NNC(=O)c2ccc(O)c([N+](=O)[O-])c2)cc1` [Example 142, 3-(4-butylphenyl)-2-furancarboxylic acid 2-(4-hydroxy-3-nitrobenzoyl)hydrazide], for which the melting point lay within 190 to 193 °C. Further, the half-maximal inhibitory concentration (IC50) in data set [1] worked out at 9.3 nM. Moreover, in data set [2], the half-inhibitory concentration (IC50) was 5.5 nM.
`O=C(NNC(=O)c1occc1-c1ccccc1)c1ccc(O)c([N+](=O)[O-])c1` [Example 143, 3-Phenyl-2-furancarboxylic acid 2-(4-hydroxy-3-nitrobenzoyl)hydrazide]: the melting point was in the range of 154 to 156 °C. Further, the IC50 in data set [1] worked out at 56 nM. The IC50 in data set [2] is 89 nM.
`Cc1cccc(-c2ccoc2C(=O)NNC(=O)c2ccc(O)c([N+](=O)[O-])c2)c1` [Example 145, 3-(3-Methylphenyl)-2-furancarboxylic acid 2-(4-hydroxy-3-nitrobenzoyl)hydrazide] gave a melting point of 126 to 128 °C. Also, the half-maximal inhibitory concentration (IC50) in data set [1] is 190 nM. In data set [2], the half-maximal inhibitory concentration (IC50) is 100 nM.
The corresponding values for `Cc1ccc(-c2ccoc2C(=O)NNC(=O)c2ccc(O)c([N+](=O)[O-])c2)cc1` [Example 146, 3-(4-Methylphenyl)-2-furancarboxylic acid 2-(4-hydroxy-3-nitrobenzoyl)hydrazide] are 180 to 182 °C, 38 nM and 27 nM.
In the case of `Cc1ccc(-c2ccoc2C(=O)NNC(=O)c2ccc(O)c([N+](=O)[O-])c2)cc1C` [Example 150, 3-(3,4-Dimethylphenyl)-2-furancarboxylic acid 2-(4-hydroxy-3-nitrobenzoyl)hydrazide], the melting point is 127 to 129 °C. The IC50 in data set [1] worked out at 73 nM. For the same compound, the half-maximal inhibitory concentration (IC50) in data set [2] stood at 90 nM.
The corresponding values for `CC(C)c1cccc(-c2ccoc2C(=O)NNC(=O)c2ccc(O)c([N+](=O)[O-])c2)c1` [Example 152, 3-(3-Isopropylphenyl)-2-furancarboxylic acid 2-(4-hydroxy-3-nitrobenzoyl)hydrazide] are 182 to 183 °C, 250 nM and 120 nM.
The compound `CC(C)c1ccc(-c2ccoc2C(=O)NNC(=O)c2ccc(O)c([N+](=O)[O-])c2)cc1` [Example 153, 3-(4-Isopropylphenyl)-2-furancarboxylic acid 2-(4-hydroxy-3-nitrobenzoyl)hydrazide] came in with a melting point of 194 to 196 °C. Besides, in data set [1], the 50% inhibitory concentration (IC50) came to 18 nM. In addition, the IC50 in data set [2] was found to be 24 nM.
The like results for `CCc1ccc(-c2ccoc2C(=O)NNC(=O)c2ccc(O)c([N+](=O)[O-])c2)cc1` [Example 156, 3-(4-Ethylphenyl)-2-furancarboxylic acid 2-(4-hydroxy-3-nitrobenzoyl)hydrazide] were, in that order, 189 to 191 °C, 45 nM and 44 nM.
The corresponding values for `CCCCCCc1ccc(-c2ccoc2C(=O)NNC(=O)c2ccc(O)c([N+](=O)[O-])c2)cc1` [Example 158, 3-(4-Hexylphenyl)-2-furancarboxylic acid 2-(4-hydroxy-3-nitrobenzoyl)hydrazide] are 144 to 146 °C, 7.1 nM and 5.9 nM.
`CCCCCOc1ccc(-c2ccoc2C(=O)NNC(=O)c2ccc(O)c([N+](=O)[O-])c2)cc1` [Example 159, 3-(4-Pentyloxyphenyl)-2-furancarboxylic acid 2-(4-hydroxy-3-nitrobenzoyl)hydrazide] yielded a melting point of 156 to 157 °C. Besides, the IC50 in data set [1] was found to be 60 nM. In addition, in data set [2], the IC50 is 31 nM.
For the compound `CCCc1ccc(-c2ccoc2C(=O)NNC(=O)c2ccc(O)c([N+](=O)[O-])c2)cc1` [Example 160, 3-(4-Propylphenyl)-2-furancarboxylic acid 2-(4-hydroxy-3-nitrobenzoyl)hydrazide], the melting point was in the range of 174 to 176 °C. In data set [1], the concentration for half-maximal inhibition (IC50) worked out at 3.4 nM. Further, in data set [2], the IC50 was 2.9 nM.
Compound `CCCCOc1ccc(-c2ccoc2C(=O)NNC(=O)c2ccc(O)c([N+](=O)[O-])c2)cc1` [Example 161] showed a melting point of 155 to 156 °C. Further, the IC50 in data set [1] worked out at 140 nM. Besides, the IC50 in data set [2] worked out at 100 nM.
In turn, `CCCCCc1ccc(-c2ccoc2C(=O)NNC(=O)c2ccc(O)c([N+](=O)[O-])c2)cc1` [Example 162, 3-(4-Pentylphenyl)-2-furancarboxylic acid 2-(4-hydroxy-3-nitrobenzoyl)hydrazide] yielded a melting point of 163 to 165 °C. The 50% inhibitory concentration (IC50) in data set [1] was found to be 8.6 nM. For the same compound, the IC50 in data set [2] turned out to be 9.6 nM.
For the compound `COc1ccc(COc2cccc(-c3ccoc3C(=O)NNC(=O)c3ccc(O)c([N+](=O)[O-])c3)c2)cn1` [Example 164, 3-[3-(2-Methoxy-5-pyridylmethyloxy)phenyl]-2-furancarboxylic acid 2-(4-hydroxy-3-nitrobenzoyl)hydrazide], the melting point lay within 180 to 181 °C. Besides, the 50% inhibitory concentration (IC50) in data set [1] came out at 6.5 nM. The half-maximal inhibitory concentration (IC50) in data set [2] turned out to be 3.9 nM.
The corresponding values for `COc1ccc(COc2cccc(-c3ccoc3C(=O)NNC(=O)c3ccc(O)c([N+](=O)[O-])c3)c2)cc1` [Example 176, 3-[3-(4-Methoxybenzyloxy)phenyl]-2-furancarboxylic acid 2-(4-hydroxy-3-nitrobenzoyl)hydrazide] are 172 to 174 °C, 5.2 nM and 6.4 nM.
In the case of `CC(C)CCOc1cccc(-c2ccoc2C(=O)NNC(=O)c2ccc(O)c([N+](=O)[O-])c2)c1` [Example 180, 3-(3-Isopentyloxyphenyl)-2-furancarboxylic acid 2-(4-hydroxy-3-nitrobenzoyl)hydrazide], the melting point lay within 122 to 124 °C. Further, the half-inhibitory concentration (IC50) in data set [1] was 46 nM. Also, the concentration for half-maximal inhibition (IC50) in data set [2] was determined as 84 nM.
In turn, `CCCCOc1cccc(-c2ccoc2C(=O)NNC(=O)c2ccc(O)c([N+](=O)[O-])c2)c1` [Example 181, 3-(3-Butoxyphenyl)-2-furancarboxylic acid 2-(4-hydroxy-3-nitrobenzoyl)hydrazide] had a melting point of 135 to 138 °C. For the same compound, the 50% inhibitory concentration (IC50) in data set [1] came to 62 nM. Further, the IC50 in data set [2] came out at 30 nM.
For `CCCCCOc1cccc(-c2ccoc2C(=O)NNC(=O)c2ccc(O)c([N+](=O)[O-])c2)c1` [Example 182, 3-(3-Pentyloxyphenyl)-2-furancarboxylic acid 2-(4-hydroxy-3-nitrobenzoyl)hydrazide], the melting point was 96 to 99 °C. Further, the IC50 in data set [1] stood at 50 nM. Moreover, the IC50 in data set [2] worked out at 49 nM.
The like results for `CC(C)COc1cccc(-c2ccoc2C(=O)NNC(=O)c2ccc(O)c([N+](=O)[O-])c2)c1` [Example 183, 3-(3-Isobutoxyphenyl)-2-furancarboxylic acid 2-(4-hydroxy-3-nitrobenzoyl)hydrazide] were, in that order, 98 to 100 °C, 34 nM and 51 nM.
For the compound `CCCCCCOc1cccc(-c2ccoc2C(=O)NNC(=O)c2ccc(O)c([N+](=O)[O-])c2)c1` [Example 184, 3-(3-Hexyloxyphenyl)-2-furancarboxylic acid 2-(4-hydroxy-3-nitrobenzoyl)hydrazide], the melting point was 124 to 126 °C. Further, the half-inhibitory concentration (IC50) in data set [1] was found to be 59 nM. For the same compound, the IC50 in data set [2] amounted to 18 nM.
For the compound `CCCCCCCOc1cccc(-c2ccoc2C(=O)NNC(=O)c2ccc(O)c([N+](=O)[O-])c2)c1` [Example 185, 3-(3-Heptyloxyphenyl)-2-furancarboxylic acid 2-(4-hydroxy-3-nitrobenzoyl)hydrazide], the melting point lay within 141 to 144 °C. The concentration for half-maximal inhibition (IC50) in data set [1] turned out to be 23 nM. The concentration for half-maximal inhibition (IC50) in data set [2] came to 20 nM.
For the compound `CCCCCCc1cccc(-c2ccoc2C(=O)NNC(=O)c2ccc(O)c([N+](=O)[O-])c2)c1` [Example 188, 3-(3-Hexylphenyl)-2-furancarboxylic acid 2-(4-hydroxy-3-nitrobenzoyl)hydrazide], the melting point was 87 to 89 °C. Moreover, in data set [1], the IC50 came out at 28 nM. The IC50 in data set [2] was 26 nM.
`O=C(NNC(=O)c1occc1-c1cccc(Cc2ccccc2)c1)c1ccc(O)c([N+](=O)[O-])c1` [Example 189, 3-(3-Benzylphenyl)-2-furancarboxylic acid 2-(4-hydroxy-3-nitrobenzoyl)hydrazide] displayed a melting point of 160 to 162 °C. For the same compound, the IC50 in data set [1] is 3 nM. Further, the IC50 in data set [2] was found to be 5.5 nM.
The compound `O=C(NNC(=O)c1occc1-c1ccccc1)c1ccc(O)c(C(F)(F)F)c1` [Example 193, 3-phenyl-2-furancarboxylic acid 2-(4-hydroxy-3-trifluoromethylbenzoyl)hydrazide] gave a melting point of 117 to 121 °C. The concentration for half-maximal inhibition (IC50) in data set [1] came to 350 nM. For the same compound, the IC50 in data set [2] was 330 nM.
As to `CC(C)=CCOc1cccc(-c2ccoc2C(=O)NNC(=O)c2ccc(O)c([N+](=O)[O-])c2)c1` [Example 196, 3-[3-(3-Methyl-2-butenyloxy)phenyl]-2-furancarboxylic acid 2-(4-hydroxy-3-nitrobenzoyl)hydrazide], the melting point fell in the range of 84 to 85 °C. The 50% inhibitory concentration (IC50) in data set [1] worked out at 63 nM. The half-maximal inhibitory concentration (IC50) in data set [2] came to 40 nM.
